Assay results from patent US9278940B2, “Cyclic amines as bromodomain inhibitors” (Zenith Epigenetics Corp., priority 2012, dated 2016).
Counter-ions that a name gives are not always drawn.

Experiments:
Brd4 bromodomain 1 = target: T1, Brd4 bromodomain 1 (Homo sapiens, UniProt O60885); assay: Inhibition of tetra-acetylated histone H4 binding to BET bromodomain (TR-FRET); set-up: key: Active: Compounds with an IC50 value less than 30 μM were deemed to be active.; Not Active: Compounds with an IC50 value less than 30 μM were deemed to be active; conditions: Brd4 bromodomain 1, tetra-acetylated histone H4 peptide
T1 construct: made in house; host or cells: E. coli BL21(DE3)
Experimental: Proteins were cloned and overexpressed with a N-terminal 6×His tag, then purified by nickel affinity followed by size exclusion chromatography. Briefly, E. coli BL21(DE3) cells were transformed with a recombinant expression vector encoding N-terminally Nickel affinity tagged bromodomains from Brd2, Brd3, Brd4. Cell cultures were incubated at 37° C. with shaking to the appropriate density and induced overnight with IPTG. The supernatant of lysed cells was loaded onto Ni-IDA column for purification. Eluted protein is pooled, concentrated and further purified by size exclusion chromatography. Fractions representing monomeric protein were pooled, concentrated, aliquoted, and frozen at −80° C. for use in subsequent experiments.
Binding of tetra-acetylated histone H4 and BET bromodomains was confirmed by a Time Resolved Fluorescence Resonance Energy Transfer (TR-FRET) method. N-terminally His-tagged bromodomains (200 nM) and biotinylated tetra-acetylated histone H4 peptide (25-50 nM, Millipore) were incubated in the presence of Europium Cryptate-labeled streptavidin (Cisbio Cat. #610SAKLB) and XL665-labeled monoclonal anti-His antibody (Cisbio Cat. #61HISXLB) in a white 96 well microtiter plate (Greiner). For inhibition assays, serially diluted test compound was added to these reactions in a 0.2% final concentration of DMSO. Final buffer concentrations were 30 mM HEPES pH 7.4, 30 mM NaCl, 0.3 mM CHAPS, 20 mM phosphate pH 7.0, 320 mM KF, 0.08% BSA). After 2 hours incubation at room temperature, the fluorescence by FRET was measured at 665 and 620 nm by a SynergyH4 plate reader (Biotek). The binding inhibitory activity was shown by a decrease in 665 nm fluorescence relative to 620 nm. IC50 values were determined from a dose response curve.

c-myc = assay: Inhibition of c-myc expression (mRNA, real-time PCR) in MV4-11 cells; format: cell-based; set-up: key: Active: Compounds with an IC50 value less than 30 μM were deemed to be active.; Not Active: Compounds with an IC50 value less than 30 μM were deemed to be active; conditions: Human AML MV4-11 cells, 3 hours
Experimental: MV4-11 cells (2.5×10^4 cells) were plated in 96 well U-bottom plates with test compound or DMSO (0.1%), and incubated for 3 hours at 37° C. Cells were then harvested by centrifugation, lysed, and mRNA was isolated using the mRNA catcher plus kit (Invitrogen). Reverse transcription of the mRNA and duplex amplification of the c-myc and cyclophilin cDNAs was performed using the RNA Ultrasense kit (Invitrogen) and a ViiA7 real-time PCR machine (Applied Biosystems). IC50 values were determined from a dose response curve.

hIL-6 mRNA = assay: Inhibition of hIL-6 mRNA transcription in LPS-stimulated U937 macrophages; format: cell-based, human; set-up: key: Active: Compounds with an IC50 value less than 30 μM are deemed to be active.; Not Active: Compounds with an IC50 value less than 30 μM are deemed to be active; conditions: U937 cells differentiated with PMA, 1 h pretreatment, LPS 3 h
Experimental: In this example, hIL-6 mRNA in tissue culture cells was quantitated to measure the transcriptional inhibition of hIL-6 when treated with a compound of the present disclosure.
A human leukemic monocyte lymphoma cell line (U937) was plated (3.2×10^4 cells per well) in a 96-well plate in […] RPMI-1640 containing 10% FBS and penicillin/streptomycin, and differentiated into macrophages for 3 days in 60 ng/mL PMA ([…]) at 37° C. in 5% CO2 prior to the addition of the compound of interest. The cells were pretreated for 1 h with the test compound prior to stimulation with 1 ug/mL lipopolysaccharide from Escherichia coli. The cells were incubated at 37-C for 3 h before the cells were harvested. At time of harvest, the spent media was removed from the cells and the cells were rinsed in 200 μL PBS. Cell lysis solution (70 μL) was added the cells in each well and incubated for 5-10 min at room temperature, to allow for complete cell lysis and detachment. mRNA was then prepared using the “mRNA Catcher PLUS plate” (Invitrogen), according to the protocol supplied. After the last wash, as much wash buffer as possible was aspirated without allowing the wells to dry. Elution buffer (E3, 70 μL) was then added to each well. mRNA was then eluted by incubating the mRNA Catcher PLUS plate with Elution Buffer for 5 min at 68° C. and then immediately placing the plate on ice.
The eluted mRNA isolated was then used in a one-step quantitative real-time PCR reaction, using components of the Ultra Sense Kit together with Applied Biosystems primer-probe mixes. Real-time PCR data was analyzed, normalizing the Ct values for hIL-6 to an internal control, prior to determining the fold induction of each unknown sample, relative to the control.

hApoA-1 mRNA = assay: Up-regulation of hApoA-1 mRNA transcription in Huh7 cells; format: cell-based, human; set-up: key: Active: Compounds with an EC170 value less than 30 μM are deemed to be active.; Not Active: Compounds with an EC170 value less than 30 μM are deemed to be active; conditions: 48 hrs treatment, ApoA-I mRNA
Experimental: In this example, ApoA-I mRNA in tissue culture cells was quantitated to measure the transcriptional up-regulation of ApoA-I when treated with a compound of the present disclosure.
Huh7 cells ([…] per well) were plated in a 96-well plate using 100 μL DMEM per well, (Gibco DMEM supplemented with penicillin/streptomycin and 10% FBS), 24 h before the addition of the compound of interest. After 48 hrs treatment, the spent media was removed from the Huh-7 cells and placed on ice (for immediate use) or at −80° C. (for future use) with the “LDH cytotoxicity assay Kit II” from Abcam. The cells remaining in the plate were rinsed with 100 μL PBS.
Then 85 μL of cell lysis solution was added to each well and incubated for 5-10 minutes at room temperature, to allow for complete cell lysis and detachment. mRNA was then prepared using the “mRNA Catcher PLUS plate” from Life Technologies, according to the protocol supplied. After the last wash, as much wash buffer as possible was aspirated without allowing the wells to dry. Elution Buffer (E3, 80 μL) was then added to each well. mRNA was then eluted by incubating the mRNA Catcher PLUS plate with Elution Buffer for 5 minutes at 68° C., and then 1 minute at 4° C. Catcher plates with mRNA eluted were kept on ice for use or stored at −80° C.
The eluted mRNA isolated was then used in a one-step real-time PCR reaction, using components of the Ultra Sense Kit together with Life Technologies primer-probe mixes. Real-time PCR data was analyzed, using the Ct values, to determine the fold induction of each unknown sample, relative to the control (that is, relative to the control for each independent DMSO concentration).
Compounds with an EC170 value less than 30 μM are deemed to be active.

Human AML MV-4-11 cells = assay: Inhibition of cell proliferation in MV4-11 cells; format: cell-based; set-up: key: Active: Compounds with an IC50 value less than 30 μM are deemed to be active.; Not Active: Compounds with an IC50 value less than 30 μM are deemed to be active; conditions: 72 hours
Experimental: MV4-11 cells: 96-well plates were seeded with 5×10^4 cells per well of exponentially growing human AML MV-4-11 (CRL-9591) cells and immediately treated with two-fold dilutions of test compounds, ranging from 30 μM to 0.2 μM. Triplicate wells were used for each concentration, as well as a media only and three DMSO control wells. The cells and compounds were incubated at 37° C., 5% CO2 for 72 hours before adding 20 μL of the CellTiter Aqueous One Solution (Promega) to each well and incubating at 37° C., 5% CO2 for an additional 3-4 hours. The absorbance was taken at 490 nm in a spectrophotometer and the percentage of proliferation relative to DMSO-treated cells was calculated after correction from the blank well. IC50 were calculated using the GraphPad Prism software.

Compound	FRET activity (IC50 < 30 μM) (Brd4 bromodomain 1)	c-myc activity (IC50 < 30 μM) (c-myc)	IL-6 activity (IC50 < 30 μM) (hIL-6 mRNA)	cell proliferation activity (IC50 < 30 μM) (Human AML MV-4-11 cells)	ApoA-1 activity (EC170 < 30 μM) (hApoA-1 mRNA)
COc1cc(OC)c2c(=O)[nH]c(-c3cccc(N4CCOCC4)n3)nc2c1 [Example 16, 5,7-Dimethoxy-2-(6-morpholinopyridin-2-yl)quinazolin-4(3H)-one Hydrochloride]	Active	Not Active	Active	Not Active	
COc1cc(OC)c2c(=O)[nH]c(-c3cccc(N4CCN(S(C)(=O)=O)CC4)n3)nc2c1 [Example 18, 5,7-Dimethoxy-2-(6-(4-(methylsulfonyl)piperazin-1-yl)pyridin-2-yl)quinazolin-4(3H)-one Hydrochloride]	Not Active		Not Active		
COc1cc(F)cc2nc(-c3cccc(N4CCN(C(C)C)CC4)n3)[nH]c(=O)c12 [Example 21, 7-Fluoro-2-(6-(4-isopropylpiperazin-1-yl)pyridin-2-yl)-5-methoxyquinazolin-4(3H)-one Hydrochloride]	Active	Active	Active	Active	
COc1cc(-c2ccccc2)cc2nc(-c3cccc(N4CCN(C(C)C)CC4)n3)[nH]c(=O)c12 [Example 25, 2-(6-(4-Isopropylpiperazin-1-yl)pyridin-2-yl)-5-methoxy-7-phenylquinazolin-4(3H)-one]	Active		Not Active		
COc1ccc(OCc2ccccc2)c2nc(-c3cccc(N4CCN(C(C)C)CC4)c3)[nH]c(=O)c12 [Example 26, 8-(Benzyloxy)-2-(3-(4-isopropylpiperazin-1-yl)phenyl)-5-methoxyquinazolin-4(3H)-one]	Active	Not Active	Not Active	Not Active	
COc1cc(OC)c2c(=O)[nH]c(-c3cccc(N4CCN(C(C)C)CC4=O)n3)nc2c1 [Example 28, 2-(6-(4-Isopropyl-2-oxopiperazin-1-yl)pyridin-2-yl)-5,7-dimethoxyquinazolin-4(3H)-one Hydrochloride]	Not Active				Not Active
COc1cc(OC)c2c(=O)[nH]c(-c3cccc(N4CCN(C)C(=O)C4)n3)nc2c1 [Example 30, 5,7-Dimethoxy-2-(6-(4-methyl-3-oxopiperazin-1-yl)pyridin-2-yl)quinazolin-4(3H)-one]	Not Active	Not Active	Active	Not Active	

Continued, in another order:

FRET activity (IC50 < 30 μM) (Brd4 bromodomain 1)	c-myc activity (IC50 < 30 μM) (c-myc)	IL-6 activity (IC50 < 30 μM) (hIL-6 mRNA)	cell proliferation activity (IC50 < 30 μM) (Human AML MV-4-11 cells)	Compound	ApoA-1 activity (EC170 < 30 μM) (hApoA-1 mRNA)
Active	Not Active	Active	Not Active	COc1cc(OC)c2c(=O)[nH]c(-c3cccc(N4CCN(CCS(C)(=O)=O)CC4)n3)nc2c1 [Example 6, 5,7-Dimethoxy-2-(6-(4-(2-(methylsulfonyl)ethyl)piperazin-1-yl)pyridin-2-yl)quinazazolin-4(3H)-one]	Active
Active	Not Active	Active	Not Active	COc1cc(OC)c2c(=O)[nH]c(-c3cc(OC(F)(F)F)cc(N4CCN(C(C)C)CC4)c3)nc2c1 [Example 20, 2-(3-(4-Isopropylpiperazin-1-yl)-5-(trifluoromethoxy)phenyl)-5,7-dimethoxyquinazolin-4(3H)-one]	
Active	Active	Active	Active	COc1cc(OCc2ccccc2)cc2nc(-c3cccc(N4CCN(C(C)C)CC4)n3)[nH]c(=O)c12 [Example 22, 7-(Benzyloxy)-2-(6-(4-isopropylpiperazin-1-yl)pyridin-2-yl)-5-methoxyquinazolin-4(3H)-one Hydrochloride]	
Active	Active	Not Active	Active	COc1cc(N2CCN(C(C)C)CC2)cc2nc(-c3cccc(N4CCN(C(C)C)CC4)n3)[nH]c(=O)c12 [Example 23, 7-(4-Isopropylpiperazin-1-yl)-2-(6-(4-isopropylpiperazin-1-yl)pyridin-2-yl)-5-methoxyquinazolin-4(3H)-one Hydrochloride]	
Active	Active	Active	Active	COc1cc(OC)c2c(=O)[nH]c(-c3cccc(N4CCN(C(=O)NC(C)C)CC4)n3)nc2c1 [Example 27, 4-(6-(5,7-Dimethoxy-4-oxo-3,4-dihydroquinazolin-2-yl)pyridin-2-yl)-N-isopropylpiperazine-1-carboxamide Hydrochloride]	
